According to patent publication US11434241B2, “Pyrimidine derivatives for prevention and treatment of bacterial infections” (UNIVERSITE DE LIEGE, priority 2018, dated 2022):

Test system: S. epidermidis (ATCC 35984) 24h-mature biofilm
Experiment: S. epidermidis 24h-mature biofilm, crystal violet biomass
Format: cell-based, Staphylococcus epidermidis
Conditions: 80 μM; 24 h treatment of 24-hour mature biofilm
Experimental: In another experiment we let adhere 0.5×10^8 CFU/ml S. epidermidis cells for 4 hr and let the biofilm form for additional 24 hr in presence of 0.25% glucose, at this point we treated the biofilm with different concentrations of molecule 2329 for 24 h in TSB with 0.25% glucose and determined the biofilm biomass using the crystal violet staining.
For biofilm analysis, we first washed the biofilm 3 times with NaCl 0.9% to eliminate all planktonic bacteria, before incubation with a staining Crystal Violet 1% solution in distilled H2O (dH2O).
Wells are washed 3 times with dH2O to eliminate unbound crystal violet. 400 μl Acetic Acid 10% is then added and incubated at RT for 10 min. Absorbance is measured in triplicate at 570 nm, reflecting total biomass of the biofilm.

## CCCSc1nc(N[C@@H]2C[C@H]2c2ccc(F)c(F)c2)c2ncn(C)c2n1 [Molecule 2329, N-((1R,2S)-2-(3,4-difluorophenyl)cyclopropyl)-9-methyl-2-(propylthio)-9H-purin-6-amine]
  mature biofilm biomass (crystal violet, absorbance 570 nm): could reduce
